Marks after values point to notes of the source that are not given here. Values belong to the compound of their own block, whether it stands above or below them.
What was measured:
OCT2 = target: T1, OCT2 (Homo sapiens, UniProt O15244); design: method as in Higashi et al. (2014); settings: ref Higashi et al. (2014); cited from earlier work
T1 sequence (O15244 1-555): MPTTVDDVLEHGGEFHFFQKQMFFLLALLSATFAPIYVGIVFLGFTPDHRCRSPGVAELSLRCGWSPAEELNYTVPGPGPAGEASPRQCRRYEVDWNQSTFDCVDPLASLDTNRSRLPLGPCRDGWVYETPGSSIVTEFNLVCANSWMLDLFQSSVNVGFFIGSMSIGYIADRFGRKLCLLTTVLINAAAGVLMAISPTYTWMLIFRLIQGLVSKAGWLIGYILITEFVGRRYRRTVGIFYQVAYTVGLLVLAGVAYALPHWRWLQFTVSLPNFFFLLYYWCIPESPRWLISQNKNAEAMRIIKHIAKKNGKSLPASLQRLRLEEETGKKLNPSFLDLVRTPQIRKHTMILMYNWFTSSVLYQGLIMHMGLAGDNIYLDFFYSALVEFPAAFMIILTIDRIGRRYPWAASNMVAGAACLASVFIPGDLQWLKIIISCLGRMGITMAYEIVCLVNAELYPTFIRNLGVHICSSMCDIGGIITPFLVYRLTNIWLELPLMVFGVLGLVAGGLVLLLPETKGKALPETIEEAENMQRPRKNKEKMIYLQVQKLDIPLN

MATE2-K (SLC47A2) [1] = target: T2, MATE2-K (SLC47A2) (Homo sapiens, UniProt Q86VL8); experiment: Cellular uptake into MATE2-K-overexpressing HEK293 cells vs EV control cells (HPLC-MS/MS); settings: for uptake ratio MATE2K (transporter-overexpressing cells over EV control cells): mean (±SD, N): 2.5 μM substrate, 1 min, 30 mM NH4Cl preincubation, HEK293
T2 sequence (Q86VL8 1-566 isoform Q86VL8-3): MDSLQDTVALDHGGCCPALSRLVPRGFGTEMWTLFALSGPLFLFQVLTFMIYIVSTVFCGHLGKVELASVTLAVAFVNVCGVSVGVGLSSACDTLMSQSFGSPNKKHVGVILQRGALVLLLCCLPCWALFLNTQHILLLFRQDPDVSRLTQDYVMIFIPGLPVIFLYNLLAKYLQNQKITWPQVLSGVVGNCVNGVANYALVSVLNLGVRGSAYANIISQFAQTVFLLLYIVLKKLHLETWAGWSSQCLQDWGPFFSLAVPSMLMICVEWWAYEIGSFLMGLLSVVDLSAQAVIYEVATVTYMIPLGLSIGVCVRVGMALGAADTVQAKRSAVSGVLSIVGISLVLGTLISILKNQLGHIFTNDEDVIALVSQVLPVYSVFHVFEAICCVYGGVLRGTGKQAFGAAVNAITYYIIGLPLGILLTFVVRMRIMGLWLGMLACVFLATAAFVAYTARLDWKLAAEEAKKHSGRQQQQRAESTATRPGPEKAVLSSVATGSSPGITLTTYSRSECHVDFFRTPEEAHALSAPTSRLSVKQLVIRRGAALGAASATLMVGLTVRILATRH

MATE1 (SLC47A1) [2] = target: T3, MATE1 (SLC47A1) (Homo sapiens, UniProt Q96FL8); experiment: Cellular uptake into MATE1-overexpressing HEK293 cells vs EV control cells (HPLC-MS/MS); settings: for uptake ratio MATE1 (transporter-overexpressing cells over EV control cells): mean (±SD, N): 2.5 μM substrate, 1 min, 30 mM NH4Cl preincubation, HEK293
T3 sequence (Q96FL8 1-570): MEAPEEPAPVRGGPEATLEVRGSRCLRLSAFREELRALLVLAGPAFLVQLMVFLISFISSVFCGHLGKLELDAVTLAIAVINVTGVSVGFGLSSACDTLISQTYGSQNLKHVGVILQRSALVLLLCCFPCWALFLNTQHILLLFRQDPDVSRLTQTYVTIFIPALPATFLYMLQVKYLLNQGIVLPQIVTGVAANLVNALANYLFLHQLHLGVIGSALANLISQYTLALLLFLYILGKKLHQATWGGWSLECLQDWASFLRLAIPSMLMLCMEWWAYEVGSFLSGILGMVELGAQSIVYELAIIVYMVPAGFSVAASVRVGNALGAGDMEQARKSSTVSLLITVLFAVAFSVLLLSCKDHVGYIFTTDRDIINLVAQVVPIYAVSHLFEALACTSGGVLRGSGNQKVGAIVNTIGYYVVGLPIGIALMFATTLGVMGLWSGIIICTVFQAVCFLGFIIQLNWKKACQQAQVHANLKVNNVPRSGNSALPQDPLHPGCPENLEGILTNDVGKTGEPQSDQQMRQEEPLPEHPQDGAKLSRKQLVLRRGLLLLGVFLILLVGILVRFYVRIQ

OCTs 1–3 = system: OCTs 1–3; design: method as in Sala-Rabanal et al. (2013); settings: rodent orthologues, ref Sala-Rabanal et al. (2013), cited from earlier work
OCT2 (SLC22A2) [3] = target: T4, OCT2 (SLC22A2) (Homo sapiens, UniProt O15244); experiment: Cellular uptake into OCT2-overexpressing HEK293 cells vs EV control cells (HPLC-MS/MS); settings: for K m (±SEM) / v max (±SEM): OCT2, net uptake, Michaelis–Menten; for uptake ratio OCT2 (transporter-overexpressing cells over EV control cells): mean (±SD, N): 2.5 μM substrate (§), 2 min, HEK293
T4 sequence (O15244 1-555): T1 sequence (O15244 1-555)

OCT1 (SLC22A1) [4] = target: T5, OCT1 (SLC22A1) (Homo sapiens, UniProt O15245); experiment: Cellular uptake into OCT1-overexpressing HEK293 cells vs EV control cells (HPLC-MS/MS); settings: for uptake ratio OCT1 (transporter-overexpressing cells over EV control cells): mean (±SD, N): 2.5 μM substrate (§), 2 min, HEK293
T5 sequence (O15245 1-554): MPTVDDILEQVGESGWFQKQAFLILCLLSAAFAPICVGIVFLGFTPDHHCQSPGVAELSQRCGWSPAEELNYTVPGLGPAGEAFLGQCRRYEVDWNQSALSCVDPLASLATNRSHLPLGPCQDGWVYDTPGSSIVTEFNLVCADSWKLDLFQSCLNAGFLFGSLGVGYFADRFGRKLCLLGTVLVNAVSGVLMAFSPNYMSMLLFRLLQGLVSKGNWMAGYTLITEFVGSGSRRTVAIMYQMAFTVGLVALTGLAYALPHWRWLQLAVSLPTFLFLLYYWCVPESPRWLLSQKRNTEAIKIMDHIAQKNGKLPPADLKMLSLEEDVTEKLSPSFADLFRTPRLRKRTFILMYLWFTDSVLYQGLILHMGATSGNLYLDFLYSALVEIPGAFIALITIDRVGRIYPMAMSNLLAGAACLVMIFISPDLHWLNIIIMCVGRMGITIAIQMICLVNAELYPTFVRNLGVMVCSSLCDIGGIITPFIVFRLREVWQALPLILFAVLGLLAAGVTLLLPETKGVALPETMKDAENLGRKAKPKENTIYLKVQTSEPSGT

OCT3 (SLC22A3) = target: T6, OCT3 (SLC22A3) (Homo sapiens, UniProt O75751); experiment: Cellular uptake into OCT3-overexpressing HEK293 cells vs EV control cells (HPLC-MS/MS); settings: for uptake ratio OCT3 (transporter-overexpressing cells over EV control cells): mean (±SD, N): 2.5 μM substrate (§), 2 min, HEK293
T6 sequence (O75751 1-556): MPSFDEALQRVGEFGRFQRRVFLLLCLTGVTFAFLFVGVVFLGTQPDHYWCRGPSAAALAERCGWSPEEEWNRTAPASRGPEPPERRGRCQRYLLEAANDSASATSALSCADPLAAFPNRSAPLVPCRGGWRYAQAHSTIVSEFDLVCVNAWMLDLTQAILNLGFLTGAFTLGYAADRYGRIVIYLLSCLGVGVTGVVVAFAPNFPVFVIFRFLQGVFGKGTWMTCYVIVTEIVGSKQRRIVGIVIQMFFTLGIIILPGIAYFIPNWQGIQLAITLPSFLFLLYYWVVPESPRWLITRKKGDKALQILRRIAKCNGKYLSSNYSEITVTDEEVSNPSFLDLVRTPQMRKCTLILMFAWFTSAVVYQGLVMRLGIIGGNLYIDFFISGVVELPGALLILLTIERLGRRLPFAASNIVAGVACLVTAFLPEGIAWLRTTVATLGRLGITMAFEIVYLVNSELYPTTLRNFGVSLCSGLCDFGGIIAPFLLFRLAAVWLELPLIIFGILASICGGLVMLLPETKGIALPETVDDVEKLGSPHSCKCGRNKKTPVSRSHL

MATE1 (SLC47A1) [5] = target: T3, MATE1 (SLC47A1); experiment: in vitro; settings: pH 7.4
MATE2-K (SLC47A2) [6] = target: T2, MATE2-K (SLC47A2); experiment: in vitro; settings: pH 7.4
OCT1 (SLC22A1) [7] = target: T5, OCT1 (SLC22A1); experiment: in vitro; settings: pH 7.4
OCT2 (SLC22A2) [8] = target: T4, OCT2 (SLC22A2); experiment: in vitro; settings: pH 7.4
[9] = uptake ratio ≥2 = notable transport

Structure (SMILES): CCC[C@@H](N)CO [(R)-(−)-2-amino-1-pentanol]
K m (±SEM) (OCT2 (SLC22A2) [3]): 198 (±67) μM
v max (±SEM) (OCT2 (SLC22A2) [3]): 1453 (±179) ^a pmol/mg protein/min
selectivity ratio at 1 min (MATE1 (SLC47A1) [5]): 1.5
selectivity ratio at 1 min (MATE2-K (SLC47A2) [6]): 1.2
selectivity ratio at 2 min (OCT1 (SLC22A1) [7]): 1.1

Structure (SMILES): CC(C)(C)[C@@H](N)CO [(R)-(−)-tert-leucinol]
selectivity ratio at 1 min (MATE1 (SLC47A1) [5]): 1.3
selectivity ratio at 1 min (MATE2-K (SLC47A2) [6]): 1.5

Structure (SMILES): CCCC[C@@H](N)CO [(R)-(−)-2-amino-1-hexanol]
K m (±SEM) (OCT2 (SLC22A2) [3]): 59 (±11) μM
v max (±SEM) (OCT2 (SLC22A2) [3]): 1342 (±84) ^b pmol/mg protein/min
higher v max of one enantiomer over the other, OCT2 (OCT2 (SLC22A2) [3]; label = enantiomer with higher v max): 1.7 fold
selectivity ratio at 1 min (MATE1 (SLC47A1) [5]): 1.2
selectivity ratio at 1 min (MATE2-K (SLC47A2) [6]): 1.3
selectivity ratio at 2 min (OCT1 (SLC22A1) [7]): 1.1

Structure (SMILES): CC(C)[C@@H](N)CO [D-valinol]
K m (±SEM) (OCT2 (SLC22A2) [3]): 329 (±190) μM
v max (±SEM) (OCT2 (SLC22A2) [3]): 2488 (±573) pmol/mg protein/min
selectivity ratio at 1 min (MATE1 (SLC47A1) [5]): 1.4
selectivity ratio at 2 min (OCT1 (SLC22A1) [7]): 1.3

Further lines, with some results ahead:

substrate activity at MATE2-K (in words) (MATE2-K (SLC47A2) [1]; [9]): did not show any substrate activity
substrate activity at MATE1 (in words) (MATE1 (SLC47A1) [2]; [9]): did not show any substrate activity
substrate activity at OCT2 (in words) (OCT2 (SLC22A2) [3]; [9]): did not show any substrate activity
substrate activity at OCT1 (in words) (OCT1 (SLC22A1) [4]; [9]): did not show any substrate activity
substrate activity at OCT3 (in words) (OCT3 (SLC22A3); [9]): did not show any substrate activity
Structure (SMILES): NCCCCNCCCN [spermidine]
K m of spermidine transport (OCT2): 6.76 mM
K m of spermidine transport (OCTs 1–3; OCT-expressing oocytes): 1 mM
increase in spermidine uptake by OCT-expressing oocytes compared to non-injected oocytes (OCTs 1–3): up to 3 fold

uptake ratio MATE2K (transporter-overexpressing cells over EV control cells): mean (±SD, N) (MATE2-K (SLC47A2) [1]): 0.9 (0.3, 3)
uptake ratio MATE2K (transporter-overexpressing cells over EV control cells): mean (±SD, N) (MATE2-K (SLC47A2) [1]; listed as L-tert-leucinol): 0.9
uptake ratio MATE1 (transporter-overexpressing cells over EV control cells): mean (±SD, N) (MATE1 (SLC47A1) [2]): 0.7 (0.2, 3)
uptake ratio MATE1 (transporter-overexpressing cells over EV control cells): mean (±SD, N) (MATE1 (SLC47A1) [2]; listed as L-tert-leucinol): 0.7
uptake ratio OCT2 (transporter-overexpressing cells over EV control cells): mean (±SD, N) (OCT2 (SLC22A2) [3]): 10.8 (1.4, 3) ^b
uptake ratio OCT2 (transporter-overexpressing cells over EV control cells): mean (±SD, N) (OCT2 (SLC22A2) [3]; listed as L-tert-leucinol): 10.8
uptake ratio OCT1 (transporter-overexpressing cells over EV control cells): mean (±SD, N) (OCT1 (SLC22A1) [4]): 1.4 (0.4, 3)
uptake ratio OCT1 (transporter-overexpressing cells over EV control cells): mean (±SD, N) (OCT1 (SLC22A1) [4]; listed as L-tert-leucinol): 1.4
uptake ratio OCT3 (transporter-overexpressing cells over EV control cells): mean (±SD, N) (OCT3 (SLC22A3)): 2.1 (0.5, 3)
uptake ratio OCT3 (transporter-overexpressing cells over EV control cells): mean (±SD, N) (OCT3 (SLC22A3); listed as L-tert-leucinol): 2.1
stereoselectivity OCT3 (uptake ratio of the more strongly transported enantiomer divided by that of the other) (OCT3 (SLC22A3); label = favoured enantiomer): 1.9-fold for(S) ^a
Structure (SMILES): CC(C)(C)[C@H](N)CO [L-tert-Leucinol]
selectivity ratio at 2 min (OCT2 (SLC22A2) [8]): 1.4
selectivity ratio at 2 min (OCT1 (SLC22A1) [7]): 1.3
